Data on one molecule can be found in publication PMC10076671, “Spider venom-derived peptide JZTX-14 prevents migration and invasion of breast cancer cells via inhibition of sodium channels” (Frontiers in Pharmacology, 2023).

The subject of assay [1] is MDA-MB-231 cells. Briefly: Transwell assay (cell migration/invasion). Conditions: 24 h incubation, crystal violet staining. It counts as cell-based, human. Here is the method:
Cell migration assay was performed using 24-well transwell plate (Corning, United States). 5×10^4 cells/well were seeded in the upper chamber in DMEM/F12 medium containing 0.1% BSA, the lower chamber contained DMEM/F12% and […]. After 24 h incubation, the cells on the filter membrane were washed three times with PBS, then fixed with 4% paraformaldehyde for 30 min and stained with 0.1% crystal violet for 20 min. The cells on the filter were observed by microscopy and the number of cells was determined using the quantification software ImageJ.

In assay [2] the test system is MDA-MB-231 cells. In words: Western blot analysis of EMT markers. To be noted: compared to controls. It counts as cell-based, human. Here is the method: Cells treated with different concentrations of JZTX-14 were lysed with RIPA lysis solution and samples were collected. Protein concentrations were determined by BCA assay kit (Biosharp, China) and denatured by adding SDS loading buffer (Bio-Bad, United States) followed by boiling. Equal amounts of total protein lysates were subjected to SDS-PAGE and transferred to PVDF membrane (Merck Millipore, United States), 5% BSA was used for blocking (1 h). Primary antibody (Nav1.5, E-cadherin, GAPDH and Vimentin antibody for Proteintech; N-cadherin for Immunoway) was incubated overnight at 4°C, secondary antibody (Abbkine, China) was incubated for 1 h at room temperature and the membrane was visualized by chemiluminescence.
(In western blotting, separated proteins are transferred to a membrane and probed.)

Where a SMILES comes first, the peptide text is derived from it. Bridges are numbered along the chain shown (N, C = ends).

As for `CC[C@H](C)[C@H](NC(=O)[C@@H]1CSSC[C@@H]2NC(=O)[C@@H]3CCCN3C(=O)[C@@H]3CCCN3C(=O)[C@H](CCC(N)=O)NC(=O)CNC(=O)[C@@H]3CCCN3C(=O)[C@H](Cc3c[nH]cn3)NC(=O)[C@@H]3CSSC[C@H](NC(=O)[C@H](C)NC(=O)[C@H](CC(C)C)NC(=O)CNC(=O)[C@H](CO)NC(=O)[C@H](CSSC[C@H](NC(=O)CN)C(=O)N[C@@H](CCC(N)=O)C(=O)N[C@@H](CCCCN)C(=O)N[C@@H](Cc4ccccc4)C(=O)N[C@@H](Cc4ccccc4)C(=O)N[C@@H](Cc4c[nH]c5ccccc45)C(=O)N[C@@H]([C@@H](C)O)C(=O)N3)NC2=O)C(=O)N[C@@H]([C@@H](C)O)C(=O)N[C@@H](Cc2c[nH]c3ccccc23)C(=O)N2CCC[C@H]2C(=O)N[C@@H]([C@@H](C)O)C(=O)N[C@@H](CCC(=O)O)C(=O)N[C@@H]([C@@H](C)CC)C(=O)N1)C(=O)N[C@@H](CC(C)C)C(N)=O` [JZTX-14] (H-GCQKFFWTCHPGQPPCCSGLACTWPTEICIL-NH2; disulfide 2-17, 9-22, 16-29), the “Inhibition of cell invasion (transwell)” value in the assay on MDA-MB-231 cells [1] (6 μM) is reported as 50%. In the assay with MDA-MB-231 cells [1] (12.5 μM), the “Inhibition of cell invasion (transwell)” value was 75%. The “E-cadherin expression level (western blot)” value with MDA-MB-231 cells [2] (epithelial marker) is on record as “significantly increased”. Further, the “MMP2 expression level (western blot)” value in the assay on MDA-MB-231 cells [2] (matrix metalloproteinase) is “decreased”. In addition, in the assay with MDA-MB-231 cells [2] (mesenchymal marker), the “N-cadherin expression level (western blot)” value was “decreased” and the “Vimentin expression level (western blot)” value is reported as “decreased”.
